Here are results for two molecules from patent publication US20140235630A1, “COMPOSITIONS AND METHODS FOR THE TREATMENT OF PROLIFERATIVE DISEASES” (Beth Israel Deaconess Medical Center, Inc., priority 2011, published 2014).

The subject of assay [1] is mouse lung tumors with transgenic H1047R mutant of PIK3CA. Particulars: within two days; cited from earlier work.
For the next assay, the system named is blood vessels in tumors. Particulars: in vivo; cited from earlier work.
The test system of another assay is HCC1937 cells. Kind of assay: DNA damage response immunoblots with or without ionizing radiation (10 Gy). It is filed as cell-based, human. As for the experimental part:
FIG. 5A are immunoblots showing the effects of Compound A, ATM inhibitor KU-55933, and their combination on the DNA damage response. HCC1937 were treated for 18 hours with Compound A at 2.5 μM, KU55933 at 10 μM, or their combination, subjected to ionizing irradiation with 10 Gy or mock, lysed 6 hours later, and subjected to immunoblotting. […] Immunoblots were performed using the Nupage System (Invitrogen). The protein concentration was determined using Bradford reagent (Biorad). A total of 20 μg of protein were loaded, except for PAR, Phospho ATM and Phospho DNA-PK/PRKDC western blots, where 40 μg were loaded. Tumor tissue lysates were prepared similarly with the exception of tissue homogenization by using an electric homogenizer for 30 secs after addition of the lysis buffer. Primary antibodies used for western blotting were total AKT (9272), Cleaved […] 3 (9661), total ERK (4695), Phospho AKT Ser473 (4058), Phospho ERK Thr202/Tyr204 (9106), Phospho-Histone H2AX Ser139 (2577), PTEN (9559) from Cell Signaling. Phospho ATM […] (2152-1), Phospho DNA-PK/PRKDC […] (3892-1) from Epitomics, Inc. CD31 (ab28364), Actin (ab6276), INPP4B (ab81269) from Abcam; pADPr (sc56198) from Santacruz Biotechnology; and Ki-67 (RM-9106) was purchased from Thermo Scientific.

Each structure is given as a SMILES string.

Regarding `Cn1c(=O)n(-c2ccc(C(C)(C)C#N)cc2)c2c3cc(-c4cnc5ccccc5c4)ccc3ncc21` [BEZ235], the FDG-PET signal result in assay [1] was “caused a reduction in the FDG-PET signal”. Also, the “sprouting of new blood vessels in tumors” value in the assay with blood vessels in tumors was “inhibits the sprouting of new blood vessels”.
In the case of `O=c1cc(-c2cccc3c2Sc2ccccc2S3)oc(N2CCOCC2)c1` [KU-55933, reference compound], the “H2AX phosphorylation in response to ionizing radiation” value in the assay on HCC1937 cells (18 hours pre-treatment, 10 Gy, lysed 6 hours later) is given as “prevented the increase”. For the same molecule, in the assay with HCC1937 cells (KU-55933 10 μM, 18 hours), the “auto-phosphorylation of ATM” value was “decrease”.
